Laboratory results published in article PMC8949503, “Radiosynthesis and Preclinical Evaluation of Bispecific PSMA/FAP Heterodimers for Tumor Imaging” (Pharmaceuticals, 2022).
One block for each molecule: values may come before it.

Legend:
FAP = target: T1, FAP (Homo sapiens, UniProt Q12884); assay: competitive binding to FAP on A549-FAP cells vs [18F]FAPI-42; conditions: for IC50: competition with [18F]FAPI-42, 60 min 37 °C
T1 construct: expressed in transfected cells
T1 sequence (Q12884 1-760): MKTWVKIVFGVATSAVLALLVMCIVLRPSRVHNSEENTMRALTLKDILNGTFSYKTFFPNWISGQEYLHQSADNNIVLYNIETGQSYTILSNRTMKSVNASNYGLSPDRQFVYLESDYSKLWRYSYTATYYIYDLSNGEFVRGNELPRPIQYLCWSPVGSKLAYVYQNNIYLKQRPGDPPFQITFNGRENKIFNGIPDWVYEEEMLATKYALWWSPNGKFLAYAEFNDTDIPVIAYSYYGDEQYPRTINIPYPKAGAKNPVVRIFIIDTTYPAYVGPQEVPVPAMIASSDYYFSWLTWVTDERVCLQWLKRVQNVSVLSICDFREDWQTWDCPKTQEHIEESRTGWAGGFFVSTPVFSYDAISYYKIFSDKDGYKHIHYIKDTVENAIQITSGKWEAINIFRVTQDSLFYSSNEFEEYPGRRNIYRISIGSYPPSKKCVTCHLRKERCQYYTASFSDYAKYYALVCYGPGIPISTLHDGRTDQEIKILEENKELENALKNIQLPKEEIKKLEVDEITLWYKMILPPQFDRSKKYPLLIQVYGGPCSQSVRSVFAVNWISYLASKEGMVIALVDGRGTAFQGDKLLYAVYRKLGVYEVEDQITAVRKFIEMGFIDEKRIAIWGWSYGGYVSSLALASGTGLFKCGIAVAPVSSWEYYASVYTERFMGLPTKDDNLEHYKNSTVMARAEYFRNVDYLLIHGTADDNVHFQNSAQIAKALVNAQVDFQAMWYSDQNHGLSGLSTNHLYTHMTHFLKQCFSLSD
Procedure: (§1) PSMA-positive 22Rv1 cells (purchased from Institute of Biochemistry and Cell Biology, Shanghai, China) and stably FAP-transfected A549-FAP cells (acquired using lentiviral infection) were used for the cell-based experiments. The 22Rv1 cells were cultivated in RPMI-1640 medium (Gibco) at 37 °C/5% carbon dioxide, while the A549-FAP cells were cultivated in DMEM medium. Both media were supplemented with 10% heat-inactivated fetal bovine serum (FBS) and 1% penicillin/streptomycin (Gibco). Puromycin (1 µg/mL) was also added to the media to maintain FAP expression.
(§2) Cells were seeded in 12-well plates 2 days in advance to achieve a final confluence of approximately 80–90% (4–5 × 10^5 cells/well). The medium was displaced by 1 mL fresh medium without FBS. The method of cell studies was similar to a method reported previously. For the competitive binding experiments, cells were incubated with the known radiotracers ([^18F]FAPI-42 for the FAP receptor and [^18F]AlF-PSMA-BCH for PSMA) in the presence of 7 different concentrations (10^−5–10^−11 M) of the corresponding unlabeled heterodimers or corresponding monomer and incubated for 60 min at 37 °C. In all experiments, the cells were washed twice with PBS, lysed with 1 M NaOH, and counted using a γ-counter. IC50 values were calculated by fitting the data using a nonlinear regression algorithm (implemented in SPSS). For the radioligand binding studies, the cells were incubated for 5, 15, 30, 60, or 120 min at 37 °C after the addition of the heterodimer or corresponding monomeric radiotracer radiotracers. The blocking experiments were determined by adding the corresponding competitors (4.4 μM 2-PMPA for 22Rv1 cells and 2.3 μM DOTA-FAPI-04 for A549-FAP cells). Radioactivity was measured using a γ-counter, normalized to 1 million cells (1 mio cells), and calculated as the percentage of the applied dose (%ID/1 mio cells). For the internalization experiments, the cells were incubated with the radiolabeled compound for 60 min, washed twice with 1 mL PBS, and then incubated for 10 min with 1 mL glycine HCl (1 M, pH 2.2) to detach the extracellular bound tracer. Next, the cells were washed with PBS (2.0 mL) and lysed with 1 M NaOH (1.5 mL). The radioactivity of the acid wash solution (extracellularly bound tracer) and cell lysate (internalized tracer) was assessed separately using a γ-counter. For the efflux experiments, the radioactive medium was removed after 60 min incubation and replaced with non-radioactive medium. At predetermined time points of 15, 30, 60, and 120 min, the cells were washed with 1.0 mL PBS three times and then lysed. The radioactivity of the remaining cells was assessed using a γ-counter. Each experiment was conducted three times with three or four replicates per independent experiment.

PSMA = target: T2, PSMA (Homo sapiens, UniProt Q04609); assay: competitive binding to PSMA on 22Rv1 cells vs [18F]AlF-PSMA-BCH; conditions: for IC50: competition with [18F]AlF-PSMA-BCH, 60 min 37 °C
T2 construct: PSMA-positive 22Rv1 cells; host or cells: 22Rv1 cells
T2 sequence (Q04609 whole entry): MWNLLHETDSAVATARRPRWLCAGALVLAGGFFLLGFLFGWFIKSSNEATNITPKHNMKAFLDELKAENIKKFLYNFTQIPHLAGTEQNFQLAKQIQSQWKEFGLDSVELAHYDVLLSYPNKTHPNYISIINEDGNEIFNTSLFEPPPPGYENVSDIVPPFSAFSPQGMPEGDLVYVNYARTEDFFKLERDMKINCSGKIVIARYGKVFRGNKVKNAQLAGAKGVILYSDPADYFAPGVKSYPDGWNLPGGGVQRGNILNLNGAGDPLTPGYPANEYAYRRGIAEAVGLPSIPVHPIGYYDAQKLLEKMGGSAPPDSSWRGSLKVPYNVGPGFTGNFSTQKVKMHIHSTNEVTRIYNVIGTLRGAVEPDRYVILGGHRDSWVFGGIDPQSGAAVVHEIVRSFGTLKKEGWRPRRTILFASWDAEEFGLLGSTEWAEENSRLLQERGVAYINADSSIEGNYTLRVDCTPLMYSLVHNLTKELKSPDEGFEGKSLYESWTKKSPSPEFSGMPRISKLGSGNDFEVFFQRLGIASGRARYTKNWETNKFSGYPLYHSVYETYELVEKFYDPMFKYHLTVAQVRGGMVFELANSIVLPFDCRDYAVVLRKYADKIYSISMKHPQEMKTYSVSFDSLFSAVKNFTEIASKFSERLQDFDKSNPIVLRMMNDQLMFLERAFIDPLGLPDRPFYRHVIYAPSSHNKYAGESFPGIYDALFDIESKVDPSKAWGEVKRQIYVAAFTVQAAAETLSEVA
Procedure: as §1, §2

[1] = test system: 22Rv1 tumor-bearing nude mice; assay: tissue biodistribution and blocking in 22Rv1 tumor-bearing nude mice; format: in vivo; conditions: 1 h p.i.
Procedure: (§3) For the biodistribution and micro-PET imaging studies, male BALB/c nude mice (6–8 weeks) were subcutaneously inoculated with 1 × 10^7 22Rv1 or 5 × 10^6 A549-FAP cells in the right shoulder. Mice were imaged or used in the biodistribution studies when the tumor reached 5–10 mm in diameter.
(§4) Mice bearing 22Rv1 or A549-FAP (n = 4 in each group) tumors were euthanized 60 min after intravenous administration of each tracer (740–1480 KBq/mouse). In the blocking group, the same experiment was conducted by co-injecting 50 μg of 2-PMPA for mice bearing 22Rv1 tumors or 50 μg of DOTA-FAPI-04 for mice bearing A549-FAP tumors. The organs of interest and tumors were quickly dissected and weighed. Radioactivity was assessed using a γ-counter and calculated as the percentage injected dose per gram (%ID/g).

[2] = test system: A549-FAP tumor-bearing nude mice; assay: tissue biodistribution and blocking in A549-FAP tumor-bearing nude mice; format: in vivo; conditions: 1 h p.i.
Procedure: as §3, §4

IC50 (PSMA): 2.5 nM
SMILES: O=C(O)CC[C@H](NC(=O)N[C@@H](CCCCNC(=O)[C@@H](Cc1ccc2ccccc2c1)NC(=O)C1CCC(CNC(=O)CN2CCN(CC(=O)O)CCN(CC(=O)O)CC2)CC1)C(=O)O)C(=O)O (stereo partly drawn) [NOTA-PSMA-BCH, reference compound]

fold higher in potency than the monomer NOTA-FAPI-42 (FAP): approximately 9 fold
IC50 (FAP): 1.7 nM
fold less potent than the monomer NOTA-PSMA-BCH (PSMA): approximately 13 fold
IC50 (PSMA): 33.7 nM
SMILES: N#C[C@@H]1CC(F)(F)CN1C(=O)CNC(=O)c1ccnc2ccc(OCCCC(=O)NCCCC[C@H](NC(=O)CN3CCN(CC(=O)O)CCN(CC(=O)O)CC3)C(=O)NCC3CCC(C(=O)N[C@H](Cc4ccc5ccccc5c4)C(=O)NCCCC[C@H](NC(=O)N[C@@H](CCC(=O)O)C(=O)O)C(=O)O)CC3)cc12 (stereo partly drawn) [NOTA-PSMA-FAPI-01]

fold higher in potency than the monomer NOTA-FAPI-42 (FAP): ~3 fold
IC50 (FAP): 5.8 nM
fold less potent than the monomer NOTA-PSMA-BCH (PSMA): ~4 fold
IC50 (PSMA): 9.8 nM
SMILES: N#C[C@@H]1CC(F)(F)CN1C(=O)CNC(=O)c1ccnc2ccc(OCCCN3CCN(C(=O)CCC(=O)NCCCC[C@H](NC(=O)CN4CCN(CC(=O)O)CCN(CC(=O)O)CC4)C(=O)NCC4CCC(C(=O)N[C@H](Cc5ccc6ccccc6c5)C(=O)NCCCC[C@H](NC(=O)N[C@@H](CCC(=O)O)C(=O)O)C(=O)O)CC4)CC3)cc12 (stereo partly drawn) [NOTA-PSMA-FAPI-02]

Further lines, the molecule ahead of its results:

SMILES: N#C[C@@H]1CC(F)(F)CN1C(=O)CNC(=O)c1ccnc2ccc(OCCCN3CCN(C(=O)CN4CCN(CC(=O)O)CCN(CC(=O)O)CC4)CC3)cc12 [NOTA-FAPI-42, reference compound]
IC50 (FAP): 14.5 nM

SMILES: O=C(O)CC[C@H](NC(=O)N[C@@H](CCCCNC(=O)[C@@H](Cc1ccc2ccccc2c1)NC(=O)C1CCC(CNC(=O)CN2CCN3CCN(CC2)CC(=O)[O][Al]([18F])[O]C(=O)C3)CC1)C(=O)O)C(=O)O (stereo partly drawn) [[^18F]AlF-PSMA-BCH]
22Rv1 tumor* uptake [1]: 6.44 ± 1.78 %ID/g
Blood uptake [1]: 0.56 ± 0.19 %ID/g
Bone uptake [1]: 0.84 ± 0.39 %ID/g
Brain uptake [1]: 0.14 ± 0.04 %ID/g
Gall bladder uptake [1]: 6.62 ± 4.25 %ID/g
Heart uptake [1]: 0.45 ± 0.10 %ID/g
Kidney* uptake [1]: 66.10 ± 18.80 %ID/g
Liver uptake [1]: 0.47 ± 0.03 %ID/g
Lung uptake [1]: 0.86 ± 0.25 %ID/g
Muscle uptake [1]: 0.31 ± 0.10 %ID/g
Small intestine uptake [1]: 0.78 ± 0.12 %ID/g
Spleen uptake [1]: 1.33 ± 0.54 %ID/g
Stomach uptake [1]: 0.41 ± 0.05 %ID/g

SMILES: N#C[C@@H]1CC(F)(F)CN1C(=O)CNC(=O)c1ccnc2ccc(OCCCN3CCN(C(=O)CN4CCN5CCN(CC4)CC(=O)[O][Al]([F])[O]C(=O)C5)CC3)cc12 [[^18F]FAPI-42, reference compound]
A549-FAP tumor uptake [2]: 5.25 ± 0.27 %ID/g
Blood uptake [2]: 1.52 ± 0.22 %ID/g
Bone uptake [2]: 7.29 ± 1.52 %ID/g
Brain uptake [2]: 0.10 ± 0.01 %ID/g
Gall bladder uptake [2]: 10.58 ± 0.83 %ID/g
Heart uptake [2]: 0.76 ± 0.09 %ID/g
Kidney uptake [2]: 1.86 ± 0.11 %ID/g
Liver uptake [2]: 0.83 ± 0.19 %ID/g
Lung uptake [2]: 0.96 ± 0.11 %ID/g
Muscle uptake [2]: 1.86 ± 0.32 %ID/g
Small intestine uptake [2]: 2.85 ± 0.91 %ID/g
Spleen uptake [2]: 0.64 ± 0.04 %ID/g
Stomach uptake [2]: 0.56 ± 0.03 %ID/g
